Experimental data reported in patent publication US20090023807A1, “Treatment of Cytokine Dysregulation by Using Sn-2 Gamma-Linolenoyl, Gamma-Diho-Molinolenoyl or Arachidonoyl Patty Acid Glycerol Monoesters” (BTG International Limited, priority 2005, published 2009).

Legend:
[1] = Precipitation of the solubilised sn-2 monoglyceride; format: physicochemical; details: acid pH
[2] = Tolerability of gavage feeding; format: in vivo, SJL mice; details: higher doses (of 50, 125 and 250 μl), seven days
TNF-α = details: cited from earlier work
[3] = Storage stability and rearrangement of the monoglyceride; format: physicochemical
Text: This exemplifies its potential for inclusion in air excluding formats such as capsules or e.g. collapsible bag containers which allow egress of oil without entry of air. A high purity process for its synthesis has also been published in Yang et al, Journal of the Chinese Institute of Chemical Engineers, 34, 617-623 (2003). These processes lend themselves to synthesis of n-3 and n-6 sn-2 monoglycerides by replacing the arachdonoyl or γ-linolenoyl source with the desired acyl group containing molecule.
Boric acid (2.81) g, 0.045 mol, 4 equivalents) was added to a freshly prepared solution of 1,3-O-benzylidene glycerol 2-octa-6Z,9Z,12Z-trienoate (5.0 g, 0.011 mol, 1 equivalent) in trimethyl borate (28 ml, 26.0 g, 0.25 mol, 22 equivalents) under N2. The mixture was stirred and heated in a sealed Teflon bomb at 90° C. for 15 minutes. The resulting cool solution was concentrated in vacuo and the residue heated at 90° C. under vacuum for 5 minutes. […] This process was repeated on the same scale twice more and the combined residues were dissolved in ether (150 ml) and washed with water (2×50 ml). The ether extract (not dried as MgSO4 promotes rearrangement) was concentrated in vacuo, ethanol added to the residue and the solution re-evaporated with ethanol (2×) to remove water. The residual tan oil (15.0 g) was purified by column chromatography on solica gel-boric acid (10:1) (10 g). Elution with DCM and then DCM-methanol (9:1) gave the product as a yellow oil (11.7 g, 73%) HPLC purity 93.4%. This material was stored in a freezer at −20° C. under N2.

TGF-β1 = TGF-β1 production from spleen mononuclear cells of mice fed the monoglyceride by gavage (ELISA); format: in vivo, SJL mice; details: fed 50 μg; for TGF-β1 production from spleen PBMCs: seven days by gavage
Protocol: After seven days animals were killed and the brain, liver and spleen were removed—the liver and brain frozen at −70° C. and mononuclear cells were isolated from spleens by sieving and density centrifugation on Lymphoprep (Sigma Chemical Co) and cultured at 37° C. in 5% CO2 atmosphere in 5 ml culture tubesat a cell density of 1×10^6 cells/ml in RPMI 1640 medium in 5% foetal calf serum (FCS). Cells were cultured with and without 1 μg/ml or 25 μg/ml concanavalin A (Con A) for approximately 20 hours and the supernatants removed and stored at −70° C. until required. Mouse TGF-β1 was measured in supernatants using a commercially available ELISA (Promega, Madison Wis.).

CREAE = CREAE feeding study; format: in vivo
Text: γ-Linolenic acid (18:3 n-6, or GLA) is known to be rapidly converted to longer-chain omega-6 polyunsaturated fatty acids dihomo-γ-linolenic acid and arachidonic acid in vivo (Phylactos et al 1994, Harbige et al 1995, 2000). Therefore to determine how to increase the level of membrane long chain omega-6 fatty acids in MS the inventors have reviewed their results obtained with several GLA-containing oils:-both fungal (from Mucor javanicus) and plant (Borago officianalis), Evening primrose Oenothera spp. or Blackcurrant Ribes spp) as well as a synthetic tri-GLA oil as GLA delivery systems in an in vivo experimental animal model of MS known as chronic relapsing experimental autoimmune encephalomyelitis (CREAE). […] Importantly blackcurrant seed oil has a low sn-2 GLA with most of the GLA in the sn-1 and sn-3 positions (Lawson and Hughes 1988). […] This would also be consistent with the sn-2 GLA being important i.e. the outer pair sn-1 and sn-3 GLA being enzymatically removed in vivo and probably undergoing oxidation leaving the sn-2 GLA only. This selective hydrolysis arises from the known ability of specific lipases to remove the sn-1 and sn-3 fatty acids from triacylgycerol molecules but an apparent protection of the sn-2 position in vivo (Lawson and Hughes 1988, Kyle 1990).

Precipitation [1]	Deterioration on storage ([3]; freezer at −20° C. under N2, 21 days)	Rearrangement to the 1-γ-Linolenoyl glycerol isomer ([3]; when heated or treated with acids or bases)	Deterioration on storage ([3]; yellow oil, −20° C. under nitrogen, several weeks at least)	Compound	Regurgitation after gavage [2]	Activity in reducing TNF-α (TNF-α)	Change % of TGF-β1 production versus control (TGF-β1; Con A 0 μg/ml) [%]	Change % of TGF-β1 production versus control (TGF-β1; Con A 1 μg/ml) [%]	Change % of TGF-β1 production versus control (TGF-β1; Con A 25 μg/ml) [%]	TGF-β1 production from spleen PBMCs (TGF-β1; stimulated, Con A 1 μg/ml) [pg/mL]	TGF-β1 production from spleen PBMCs (TGF-β1; stimulated, Con A 25 μg/ml) [pg/mL]	TGF-β1 production from spleen PBMCs (TGF-β1; unstimulated, Con A 0 μg/ml) [pg/mL]	Protective effects in CREAE (CREAE)
tendency to precipitate	Little if any deterioration	can undergo rearrangement	without deterioration	CCCCC/C=C\C/C=C\C/C=C\CCCCC(=O)OC(CO)CO [Example 1b, glycerol 2-octa-6Z,9Z,12Z-trienoate]	prone to regurgitation	inactive	80	79	42	409	480	377	
				CCCCC/C=C\C/C=C\C/C=C\CCCCC(=O)OCC(COC(=O)CCCC/C=C\C/C=C\C/C=C\CCCCC)OC(=O)CCCC/C=C\C/C=C\C/C=C\CCCCC [TG-GLA]									protective effects similar to that of the borage oil
